# In PubChem BioAssay (NCI):
#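 Compound exposure: 48 hours, 5 concentrations, 96-well plates. Abbreviation: GI50, concentration required for 50% inhibition of growth. TGI is the concentration that stops growth completely.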
# How the values were obtained:
# Assay in all cases: NCI anticancer screen, dose series, 48 h
# CAKI-1 renal = tested on: CAKI-1 renal
# SF-268 CNS = tested on: SF-268 CNS
# MOLT-4 leukemia = tested on: MOLT-4 leukemia
# HCC-2998 colon = tested on: HCC-2998 colon
# NCI-H226 lung = tested on: NCI-H226 lung
# OVCAR-5 ovarian = tested on: OVCAR-5 ovarian
# ACHN renal = tested on: ACHN renal
# HT29 colon = tested on: HT29 colon
# SNB-75 CNS = tested on: SNB-75 CNS
# HOP-62 NSCLC = tested on: HOP-62 NSCLC
SMILES,TGI (CAKI-1 renal),TGI (SF-268 CNS),TGI (MOLT-4 leukemia),TGI (HCC-2998 colon),TGI (NCI-H226 lung),TGI (OVCAR-5 ovarian),TGI (ACHN renal),TGI (HT29 colon),TGI (SNB-75 CNS),TGI (HOP-62 NSCLC),GI50 (CAKI-1 renal),GI50 (SF-268 CNS),GI50 (MOLT-4 leukemia),GI50 (HCC-2998 colon),GI50 (NCI-H226 lung),GI50 (OVCAR-5 ovarian),GI50 (ACHN renal),GI50 (HT29 colon),GI50 (SNB-75 CNS),GI50 (HOP-62 NSCLC)
Cc1ccc(C(=O)c2nnc(C(=O)c3ccc(C)cc3)nn2)cc1,> 100 µM,55.4 µM,> 100 µM,> 100 µM,> 100 µM,> 100 µM,> 100 µM,> 100 µM,> 100 µM,> 100 µM,,,,,,,,,,
COc1cc(C2CC(c3ccc4c(c3)OCO4)=NN2C=O)cc(OC)c1OC (centres undefined),> 100 µM,> 100 µM,> 100 µM,> 100 µM,> 100 µM,> 100 µM,> 100 µM,> 100 µM,5.43 µM,> 100 µM,1.25 µM,6.88 µM,4.34 µM,4.44 µM,8.06 µM,12.2 µM,3.53 µM,0.467 µM,1.13 µM,2.81 µM
NCCn1c(=O)[nH]c(=O)[nH]c1=S,> 100 µM,> 100 µM,> 100 µM,> 100 µM,> 100 µM,> 100 µM,> 100 µM,> 100 µM,> 100 µM,> 100 µM,> 100 µM,> 100 µM,> 100 µM,> 100 µM,> 100 µM,> 100 µM,> 100 µM,> 100 µM,> 100 µM,> 100 µM
CN(C)CCCNC(CC#N)CCC#N (centres undefined),> 10 µM,> 10 µM,> 10 µM,> 10 µM,> 10 µM,> 10 µM,> 10 µM,> 10 µM,> 10 µM,> 10 µM,,,,,,,,,,
C=CCOc1cccc(/C=C2\SC(=Nc3ccc(O)cc3)NC2=O)c1,6.43 µM,> 22.6 µM,> 23.8 µM,9.22 µM,22.6 µM,24.9 µM,13.7 µM,29.6 µM,0.668 µM,13.1 µM,0.466 µM,1.44 µM,0.523 µM,1.15 µM,1.21 µM,2.32 µM,0.777 µM,3.54 µM,0.189 µM,0.66 µM
CC[C@@H](C(=O)O)C1CC[C@H](C)C([C@@H](C)[C@H](O)[C@H](C)C(=O)[C@H](CC)C2O[C@]3(C=C[C@@H](O)[C@]4(CC[C@@](C)(C5CC[C@](O)(CC)[C@H](C)O5)O4)O3)[C@H](C)C[C@@H]2C)O1 (some centres undefined),18.2 µM,16 µM,5.92 µM,7.52 µM,10.8 µM,50.8 µM,27.5 µM,25.7 µM,4.18 µM,21.7 µM,0.19 µM,1.31 µM,1.47 µM,0.13 µM,1.19 µM,2.48 µM,0.504 µM,0.293 µM,0.774 µM,1.11 µM
Cc1ccc(NC(=O)C(=O)C(C#N)c2ccccc2C)cc1C (centres undefined),> 100 µM,> 100 µM,> 100 µM,> 82 µM,> 100 µM,> 100 µM,> 100 µM,> 100 µM,> 100 µM,> 100 µM,,,,,,,,,,
Cc1ccc(-c2cn3ccnc3c(-c3ccc(Cl)cc3)n2)cc1,2.84 µM,11.7 µM,> 100 µM,11.4 µM,> 100 µM,> 100 µM,22.3 µM,37.4 µM,24.5 µM,> 68.6 µM,0.0361 µM,0.0885 µM,0.0815 µM,2.13 µM,10.3 µM,14.8 µM,,0.31 µM,0.465 µM,3.69 µM
Cc1c(C(=O)C/C(=N\O)C(=O)Nc2cc(Cl)c(Cl)cc2Cl)[n+](=O)c2ccccc2n1[O-],> 100 µM,75.7 µM,32.8 µM,23.5 µM,37.5 µM,39.6 µM,67.5 µM,> 100 µM,> 100 µM,> 100 µM,,,,,,,,,,
COc1ccc(-c2csc(N(C(=O)N3CCN(c4cc5c(cc4F)c(=O)c(C(=O)O)cn5C4CC4)CC3)c3ccccc3)n2)cc1,8.76 µM,> 100 µM,> 100 µM,> 100 µM,21.7 µM,> 100 µM,5.09 µM,46.2 µM,> 25.9 µM,> 79 µM,2.46 µM,3.2 µM,3.78 µM,4.13 µM,3.18 µM,3.29 µM,1.85 µM,3.62 µM,0.812 µM,1.12 µM
Cc1[nH]ccc2c1[nH]c1cc(=O)ccc12,> 100 µM,> 100 µM,85.9 µM,> 100 µM,> 100 µM,> 100 µM,> 100 µM,> 100 µM,> 100 µM,> 100 µM,,,,,,,,,,
